Converted amounts (≈) assume the structure as drawn. Like-named read-outs stand apart in the source and are kept apart here.
Columns and labels:
E. coli DH10B cells = test: growth rate of cells grown in the presence of the unnatural amino acid; details: 1 mM; cells transformed with mutRNACUA^Tyr, LW1RS and Z domain gene (Lys7TAG)
Method: E. coli DH10B cells cotransformed with pLEIZ and pBK-LW1RS were grown in minimal media containing 1% glycerol and 0.3 mM leucine (GMML media) with 25 μg/mL kanamycin, 34 μg/mL of chloramphenicol, and 1.0 mM p-acetyl-(±)-phenylalanine. When cells reach an OD600 of 0.5, isopropyl-β-D-thiogalactopyranoside (IPTG) (1 mM) was added to induce polypeptide expression.
To test the ability of the evolved synthetase and the mutRNACUA^Tyr to selectively incorporate p-acetyl-L-phenylalanine into polypeptides, an amber stop codon was substituted at a permissive site (Lys7) in the gene for the Z domain of staphylococcal protein A (32) with a COOH-terminal His6 tag. […] Cells transformed with the mutRNACUA^Tyr, LW1RS and Z domain gene (Lys7TAG) were grown in the presence of 1 mM p-acetyl-(±)-phenylalanine.

[1] = system: cells harboring mutant TyrRS plasmids; test: chloramphenicol resistance of cells harboring mutant TyrRS plasmids selected for m-acetyl phenylalanine; assay type: cell-based
Excerpt: Preparation of Mutant TyrRS Library Plasmids. A library of plasmids encoding mutant M. jannaschii TryRSs directed at meta-substituted tyrosine derivatives was constructed, generally following the methods described in Example 1 of WO 2002/085923. Briefly, six residues (Tyr^32, Ala^67, His^70, Gln^155, Asp^158, Ala^167) in the active site of M. jannaschii TyrRS that are within 6.9 Å of the meta-position of the aryl ring of bound tyrosine in the crystal structure of Bacillus stearothermophilus TyrRS were mutated to all 20 amino acids at DNA level using the NNK codon scheme as described in Example 1 above. The constructed plasmid library pBK-lib contained around 1×10^9 independent clones.
Evolution of Orthogonal tRNA-synthetase Pairs for Incorporation of m-acetyl Phenylalanine. After 3 rounds of positive selection and 2 rounds of negative selection, five candidate clones (SEQ ID NO: 17-21 of WO 2002/085923) emerged whose survival in chloramphenicol was dependent on the addition of the unnatural amino acid. In the absence of m-acetyl phenylalanine, the IC50 of chloramphenicol resistance for cells harboring the one of the […] mutant TyrRS plasmids is 20 μg/ml. In the presence of m-acetyl phenylalanine, the IC50 of resistance to chloramphenicol for the same cells is 100 μg/ml. […]

[2] = system: E. coli cells expressing mutant TyrRS and mutRNACUA^Tyr; test: in vivo CAT assay: chloramphenicol resistance of cells expressing selected mutant TyrRS and mutRNACUA^Tyr (Asp112TAG CAT gene); assay type: cell-based, Escherichia coli; details: for IC50: Escherichia coli, read-out: IC50 value of chloramphenicol, eleven mutant TyrRS
Method: In the positive selection, plasmid pYC-J17 was used to express the mutRNACUA^Tyr gene and the chloramphenicol acetyl transferase (CAT) gene with a TAG stop codon at Asp112 (4). Supercoiled DNA encoding the TyrRS library was transformed into E. coli DH10B competent cells containing pYC-J17. Cells were then plated on minimal media plates containing 1% glycerol and 0.3 mM leucine (GMML) with 17 μg/mL tetracycline, 25 μg/mL kanamycin, 60 μg/mL of chloramphenicol, and 1 mM p-acetyl-L-phenylalanine. After incubation at 37° C. for 40 hours, colonies were pooled, and plasmids were isolated. Plasmids encoding mutant synthetases (pBK plasmids) were separated from pYC-J17 using gel electrophoresis and transformed into E. coli DH10B competent cells containing pLWJ17B3 for negative selection. […] Transformed cells were grown on LB (Luria-Bertani) plates containing 0.2% arabinose, 50 μg/ml kanamycin, and 35 μg/ml chloramphenicol. After 8 hours, cells were removed from the plate, and pBK plasmids were purified for further rounds of selection. In the second and third round of positive selection, the concentration of chloramphenicol was increased to 80 and 100 μg/mL, respectively. […] The polypeptide sequences of these mutant TyrRS converged on 3 independent clones LW1, LW5 and LW6, although the codon usage of each mutant TyrRS differs.
The Methanococcus jannaschii tyrosyl-tRNA synthetase (TyrRS) and a mutant tyrosine amber suppressor tRNA (mutRNACUA^Tyr) were used as the starting point for the generation of the orthogonal tRNA-synthetase pairs. […] To change the amino acid specificity of the TyrRS so that it charges p-acetyl-L-phenylalanine and not any of the common 20 amino acids, a library of M. jannaschii TyrRS mutants was generated and screened. The crystal structure of the homologous Bacillus stearothertnophilus TyrRS (31) was used to identify those residues that are within 6.5 Å of the para position of the aryl ring of bound tyrosine. Five corresponding residues (Tyr32, Glu107, Asp158, Ile159 and Leu162) in the active site of M. jannaschii TyrRS were randomly mutated by polymerase chain reaction (PCR) to generate a library 1.6×10^9 in size (4). This TyrRS mutant library was first passed through a positive selection in the presence of 1 mM p-acetyl-L-phenylalanine which is based on the suppression of an amber stop codon at nonessential residue (Asp 112) in chloramphenicol acetyl transferase (CAT) gene encoded on plasmid pYC-J17 (4) in E. coli. Cells surviving in chloramphenicol must encode a mutant synthetase that aminoacylates the mutRNACUA^Tyr with either a common amino acid(s) or p-acetyl-L-phenylalanine. […]

[3] = system: mutant Z domain protein expressed by mutRNACUA^Tyr/LW1RS; test: fidelity of unnatural amino acid incorporation into Z domain (Lys7TAG), by FT-ICR MS; design: species or system E. coli; details: from a signal-to-noise ratio of more than 1500 in the intact protein mass spectrum
Excerpt: Plasmid pLEIZ was used to express the Z-domain gene with an amber codon at the 7th position and a COOH-terminal His6 tag under the control of a bacteriophage T5 promoter and t0 terminator, and the mutRNACUA^Tyr gene under the control of the lpp promoter and rrnC terminator. The mutant synthetase gene isolated from clone LW1 (LW1RS) was encoded in plasmid pBK-LW1RS under the control of the constitutive E. coli GlnRS promoter and terminator. E. coli DH10B cells cotransformed with pLEIZ and pBK-LW1RS were grown in minimal media containing 1% glycerol and 0.3 mM leucine (GMML media) with 25 μg/mL kanamycin, 34 μg/mL of chloramphenicol, and 1.0 mM p-acetyl-(±)-phenylalanine. When cells reach an OD600 of 0.5, isopropyl-β-D-thiogalactopyranoside (IPTG) (1 mM) was added to induce polypeptide expression. […] The yield of polypeptide was measured by Bradford assay (BCA kit, Biorad, Hercules, Calif.). […]
To test the ability of the evolved synthetase and the mutRNACUA^Tyr to selectively incorporate p-acetyl-L-phenylalanine into polypeptides, an amber stop codon was substituted at a permissive site (Lys7) in the gene for the Z domain of staphylococcal protein A (32) with a COOH-terminal His6 tag. Z domain has a molecular weight of about 7.9 kD, so its mass can be measured with very high accuracy using ion cyclotron resonance mass spectrometry. […]

With CC(=O)c1ccc(CC(N)C(=O)O)cc1 (racemic) [p-acetyl-(±)-phenylalanine] the “effect on growth rate of cells” value (E. coli DH10B cells) was “did not affect the growth rate of cells”.
O=C(N[C@H](CO)[C@H](O)c1ccc([N+](=O)[O-])cc1)C(Cl)Cl [chloramphenicol] showed an IC50 ([1]; in the presence of m-acetyl phenylalanine, read-out: IC50 of resistance to chloramphenicol) of 100 µg/mL, an IC50 ([1]; read-out: IC50 of chloramphenicol resistance) of 20 µg/mL (≈ 61.9 µM) and an IC50 ([2]; in the absence of p-acetyl-L-phenylalanine) of 9 µg/mL (≈ 27.9 µM). For the same compound, the IC50 ([2]; in the presence of p-acetyl-L-phenylalanine) was 120 µg/mL, the “chloramphenicol concentration on which cells survived” value ([2]; GMML plates, in the absence of p-acetyl-L-phenylalanine) was 9 µg/mL and the “chloramphenicol concentration in which cells survived” value ([2]; GMML plates, in the presence of p-acetyl-L-phenylalanine) was 120 µg/mL.
With CC(=O)c1ccc(C[C@H](N)C(=O)O)cc1 [p-acetyl-L-phenylalanine] the “fidelity for the incorporation” value [3] was > 99.8%.
